{
  "source": "paper PMC10044725",
  "about": "“Antioxidant, Anti-Inflammatory and Anti-Diabetic Activities of Tectona grandis Methanolic Extracts, Fractions, and Isolated Compounds” (Antioxidants, 2023)",
  "key": {"TNF-α": {"system": "TNF-α", "assay": "TNF-α secretion in LPS-stimulated RAW 264.7 macrophages (ELISA)", "format": "cell-based, mouse", "details": "40 µM, LPS 1 µg/mL, 48 h, vs model control (p < 0.01)", "protocol": "(§1) In order to increase cytokine production, macrophages were treated with LPS at a final concentration of 1 µg/mL, and then with T. grandis compounds at 40 µM. The compounds were solubilized in DMEM medium containing 0.1% DMSO. Dexamethasone was employed as a positive control (5 µg/mL). A centrifuge was used to separate the supernatant from the cells after 48 h of incubation, with three replicates per group. Quantification of TNF-α, IL-1β and IL-6 secretion was achieved by following the ELISA manufacturer's instructions. Then, absorbance was measured at 450 nm. Relative TNF-α, IL-1β and IL-6 expression was calculated according to Equation (4). Following the inflammatory factor test, cell viability was detected by CellTiter96® Aqueous One Solution Cell Proliferation Assay. Then, 20 μL/well CellTiter96® Aqueous One Solution Cell Growth Assay reagent was added to the plate and incubated at 37 °C for 8 h, absorbance was measured at […] and relative cell viability was calculated according to Equation (5). Relative content of inflammatory cytokines (%) = (A1/A2)/A3 × 100%(4) where A1 is the concentrations value of inflammatory cytokines of each group, A2 is the relative cell viability of each group (model group is 100) and A3 is the concentration of inflammatory cytokines of model group. Cell viability rate (%) = B1/B2 × 100%(5) where B1 is the OD value of each fraction group or positive control group and B2 is the OD value of the model control."}, "α-glucosidase": {"system": "α-glucosidase", "assay": "α-Glucosidase inhibition assay (pNPG)", "format": "biochemical", "details": "for Inhibitory Rate (%): at a concentration of 50 µM; for IC50: compounds", "protocol": "The inhibitory effect on α-glucosidase was measured according to the previous report method with slight modifications. The 20 mM sample dissolved in DMSO was diluted to 50 μM in PBS, 10 μL sample was mixed with 50 μL of 0.1 μ/mL α-glucosidase solution in 0.1 M phosphate buffer (pH 6.5) in a 96-well microplate and 10 μL PBS was used as a blank control. The mixture was incubated at 37 °C for 10 min before adding 40 µL of 5 mM 4-nitrophenyl-α-D-glucopyranoside to each well. After 30 min of incubation at 37 °C, the reaction was terminated by adding 50 μL of 0.1 M Na2CO3 to this mixture. The released 4-nitrophenol absorbance measurements were carried out using a microplate reader (SpectraMax190, USA) at 405 nm."}, "[1]": {"assay": "DPPH free radical scavenging assay", "details": "isolated compounds; half scavenging concentration; read-out: DPPH Assay SC50", "protocol": "The DPPH free radical scavenging activities of T. grandis methanolic extract, different fractions and its compounds were conducted according to Dr. Yang et al.. […] The absorbance was measured using a microplate reader at 517 nm, and ascorbic acid was used as a positive control. The DPPH scavenging activity was calculated according to the following formula: Scavenging activity (%) = [1 − (A1 − A2)/(A3 − A4)] × 100% (1) where A1 is the OD value of the tested samples, A2 is the OD value of the sample control, A3 is the OD value of the negative control and A4 is the OD value of the blank control. The analysis was performed in triplicates and the results were described as SC50 values."}, "IL-6": {"system": "IL-6", "assay": "IL-6 secretion in LPS-stimulated RAW 264.7 macrophages (ELISA)", "format": "cell-based, mouse", "details": "40 µM, LPS 1 µg/mL, 48 h, vs model control (p < 0.05)", "protocol": "as §1"}, "IL-1β": {"system": "IL-1β", "assay": "IL-1β secretion in LPS-stimulated RAW 264.7 macrophages (ELISA)", "format": "cell-based, mouse", "details": "40 µM, LPS 1 µg/mL, 48 h, vs model control (p < 0.0001)", "protocol": "as §1"}, "[2]": {"assay": "Ferric reducing antioxidant power (FRAP) assay", "details": "compounds at 50 μM; Trolox equivalent", "protocol": "The FRAP assay was determined in accordance with the instructions for the FRAP kit. The total antioxidant activity values were estimated using the Trolox equivalent antioxidant capacity test. Initially, the detection concentration of methanolic extract and different fractions was 80 μg/mL, and the detection concentration of compounds (1–23) was 50 μM. Then, 190 μL of FRAP working reagent was mixed with 10 μL sample and incubated at room temperature for 20 min. The absorbance was then measured using a microplate reader at 593 nm, and the scavenging activity was calculated according to Equation (3). The blank control group used DMSO to replace the sample. […] The analysis was performed in triplicates, 0.8054, 0.0134 was a constant."}, "[3]": {"assay": "ABTS radical cation scavenging assay (Trolox equivalent)", "details": "compounds at 50 μM", "protocol": "The ABTS radical cation (ABTS•+) scavenging activities were conducted in accordance with the instructions for the ABTS kit. The total antioxidant activity values were estimated using the Trolox equivalent antioxidant capacity test. The detection concentration of methanolic extract and different fractions was 80 μg/mL, and the detection concentration of compounds (1–23) was 50 μM. […] Then, 190 μL of ABTS working reagent was mixed with 10 μL sample and incubated at room temperature for 5 min. The absorbance was then measured using a microplate reader at 734 nm, and the scavenging activity was calculated according to Equation (2). The blank control group used DMSO to replace the sample. […] The analysis was performed in triplicates, 1.424, 0.0012 was a constant."}, "pBR322 DNA": {"system": "pBR322 DNA", "assay": "Prevention of AAPH-induced DNA oxidative damage", "details": "AAPH 20 mM; p < 0.0001 vs model", "protocol": "The effects of T. grandis methanolic extract, different fractions and its compounds 15, 19 and 23 on the prevention of DNA oxidative damage were carried out using the method of Han et al.. Initially, 8 μL pBR322 DNA (50 μg/mL) in PBS (0.1 M, pH 6.8) was mixed with different concentrations of T. grandis fractions and its compounds (12 μL) and incubated in water at 37 °C for 30 min. Then, 5 μL AAPH (20 mM) was added to the mixture and the reaction continued for 60 min. The control group used the same volume of PBS (0.1 M, pH 6.8) to replace AAPH. The pre-treated samples were mixed with 5 × DNA loading buffer, and the mixture (8 μL) was taken for 1.0% agarose gel electrophoresis for 25 min. After electrophoresis, the gels were stained with ethidium bromide for 20 min. Finally, images were taken using a DNA gel imaging system (ChampChemi 610, Beijing sage creation Co., Ltd. Beijing, China)."}, "BSA": {"system": "BSA", "assay": "Prevention of AAPH-induced protein oxidative damage", "design": "species or system Bovine", "details": "AAPH 160 mM; residual BSA", "protocol": "The protective activities of T. grandis methanolic extract, different fractions and its compounds 15 and 23 on protein oxidative damage were carried out using the method of Yang et al.. Initially, 20 μL BSA solutions (1 mg/mL) in PBS (0.1 M, pH 6.8) were mixed with different concentrations of fractions (40 μL) and compounds (40 μL) and incubated in water at 37 °C for 30 min. Then, 40 μL AAPH (160 mM) was added to the mixture and the reaction continued for 4 h. The control group used the same volume of PBS (0.1 M, pH 6.8) to replace AAPH. The pre-treated samples were added to 5 × SDS loading buffer and treated in water at 95 °C for 15 min. […] After electrophoresis, the gels were stained with Coomassie brilliant blue R-250 dye (0.25%, w/v), and then the gels were decolorized with the decolorizing solution. Finally, images were taken using the SDS-PAGE gel imaging system (ChampChemi 610, China) and the grayscale of Western blot was analyzed using Image J software."}},
  "note": "Marks after values point to notes of the source that are not given here.",
  "data": [
    {"compound": "CC1CCC2(C(=O)OC3OC(CO)C(O)C(O)C3OC3OC(CO)C(O)C(O)C3O)CCC3(C)C(=CCC4C5(C)CC(O)C(O)C(C)(CO)C5CCC43C)C2C1(C)O", "note": "[Compound 18, 2β,3β,19α,23-tetrahydroxy-urs-12-en-28-O-[β-D-glucopyranosyl (1-2)-β-D-glucopyranosyl] ester]", "values": [
      {"measurement": "effect on TNF-α inflammatory factor level", "setting": "TNF-α", "value": "could decrease"},
      {"measurement": "Inhibitory Rate (%)", "setting": "α-glucosidase", "value": "22.91 ± 1.10 ^c %"},
      {"measurement": "IC50", "setting": "α-glucosidase", "value": "> 50", "unit": "µM"},
      {"measurement": "EC50", "setting": "[1]", "value": "8.45 ± 0.57", "unit": "µM"},
      {"measurement": "effect on IL-6 inflammatory factor expression", "setting": "IL-6", "value": "significant activities in reducing the expression"},
      {"measurement": "effect on IL-1β inflammatory factor level", "setting": "IL-1β", "value": "significant decrease"},
      {"measurement": "FRAP Assay", "setting": "[2]", "value": "0.39 ± 0.00 ^b mmol Trolox/L"}
    ]},
    {"compound": "COC(=O)c1cc(O)c2c(c1)C(=O)c1ccccc1C2=O", "note": "[Compound 13, 3-carbomethoxy-1-hydroxy-9,10-anthraquinone]", "values": [
      {"measurement": "ABTS Assay", "setting": "[3]", "value": "0.04 ± 0.00 ^d mmol Trolox/L"},
      {"measurement": "Inhibitory Rate (%)", "setting": "α-glucosidase", "value": "13.84 ± 0.93 ^d %"},
      {"measurement": "IC50", "setting": "α-glucosidase", "value": "> 50", "unit": "µM"},
      {"measurement": "EC50", "setting": "[1]", "value": "3.56 ± 0.53", "unit": "µM"},
      {"measurement": "effect on IL-6 inflammatory factor expression", "setting": "IL-6", "value": "significant activities in reducing the expression"},
      {"measurement": "effect on IL-1β inflammatory factor level", "setting": "IL-1β", "value": "significant decrease"},
      {"measurement": "FRAP Assay", "setting": "[2]", "value": "0.01± 0.01 ^c mmol Trolox/L"}
    ]},
    {"compound": "C[C@@H]1O[C@@H](O[C@@H]2[C@@H](O)[C@H](OCCc3ccc(O)c(O)c3)O[C@H](CO)[C@H]2OC(=O)/C=C/c2ccc(O)c(O)c2)[C@H](O)[C@H](O)[C@H]1O", "note": "[Compound 15, verbascoside]", "values": [
      {"measurement": "concentration at which a protective effect against DNA oxidative damage begins", "setting": "pBR322 DNA", "value": 0.6, "unit": "mM"},
      {"measurement": "ABTS Assay", "setting": "[3]", "value": "1.10 ± 0.77 ^a mmol Trolox/L"},
      {"measurement": "Inhibitory Rate (%)", "setting": "α-glucosidase", "value": "18.30 ± 2.22 ^cd %"},
      {"measurement": "IC50", "setting": "α-glucosidase", "value": "> 50", "unit": "µM"},
      {"measurement": "EC50", "setting": "[1]", "value": "1.99 ± 0.34", "unit": "µM"},
      {"measurement": "concentration at which a protective effect against protein oxidative damage begins", "setting": "BSA", "value": 40, "unit": "µM"},
      {"measurement": "FRAP Assay", "setting": "[2]", "value": "1.22 ± 0.11 ^a mmol Trolox/L"}
    ]},
    {"compound": "O=c1cc(-c2ccc(O)c(O)c2)oc2cc(O[C@@H]3O[C@H](CO)[C@@H](O)[C@H](O)[C@H]3O)cc(O)c12", "note": "[Compound 1, luteolin-7-O-β-D-glucoside]", "values": [
      {"measurement": "effect on TNF-α inflammatory factor level", "setting": "TNF-α", "value": "could decrease"},
      {"measurement": "ABTS Assay", "setting": "[3]", "value": "0.08 ± 0.01 ^d mmol Trolox/L"},
      {"measurement": "Inhibitory Rate (%)", "setting": "α-glucosidase", "value": "10.62 ± 1.39 ^d %"},
      {"measurement": "IC50", "setting": "α-glucosidase", "value": "> 50", "unit": "µM"},
      {"measurement": "EC50", "setting": "[1]", "value": "8.09 ± 1.05", "unit": "µM"},
      {"measurement": "effect on IL-6 inflammatory factor expression", "setting": "IL-6", "value": "significant activities in reducing the expression"},
      {"measurement": "effect on IL-1β inflammatory factor level", "setting": "IL-1β", "value": "significant decrease"}
    ]}
  ]
}
